Test [1] concerns the target T1, NLRP3 (Homo sapiens, UniProt Q96P20). The test can be described thus: Human whole blood IL1β release assay (LPS + nigericin, AlphaLisa IL-1β; HWB IC50). Type of test: cell-based. Further details: Human whole blood in Li-heparin tubes was obtained from healthy donors from a volunteer donor panel; from tissue; host or cells: human whole blood from healthy donors. The settings on record: IL-1β release. On the procedure:
For systemic delivery, the ability to inhibit NLRP3 when the compounds are present within the bloodstream is of great importance. For this reason, the NLRP3 inhibitory activity of a number of compounds in human whole blood was investigated in accordance with the following protocol.
Human whole blood in Li-heparin tubes was obtained from healthy donors from a volunteer donor panel. • 1. Plate out 80 μl of whole blood containing 1 μg/ml of LPS in 96-well, clear bottom cell culture plate (Corning #3585) • 2. Add 10 μl compound (8 points half-log dilution with 10 μM top dose) or vehicle (DMSO 0.1% FAC) to the appropriate wells • 3. Incubate for 3 hrs at 37° C., 5% CO2 • 4. Add 10 μl nigericin (Sigma #N7143) (10 μM FAC) to all wells • 5. Incubate for 1 hr at 37° C., 5% CO2 • 6. At the end of the incubation period, spin plates at 300×g for 5 mins to pellet cells and remove 20 μl of supernatant and add to 96-well v-bottom plates for IL-1β analysis (note: these plates containing the supernatants can be stored at −80° C. to be analysed at a later date) • 7. IL-1β was measured according to the manufacturer protocol (Perkin Elmer-AlphaLisa IL-1 Kit AL220F-5000) • 8. IC50 data is fitted to a non-linear regression equation (log inhibitor vs response-variable slope 4-parameters)
A general note: Bead proximity is the source of the signal in Alpha formats.

The target in test [2] is T1, NLRP3. The test can be described thus: THP-1 cells pyroptosis assay (LPS + nigericin, resazurin readout; THP IC50). More on the design: Seed THP-1 cells (25,000 cells/well) containing 1.0 μg/ml LPS in 40 μl of RPMI medium; host or cells: THP-1 cells. It counts as cell-based. The method in brief:
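Human THP-1 cells, 25,000/well in serum-free RPMI with 1 μg/ml LPS, treated 3 hrs at 37° C with compound (8-point half-log, 10 μM top, 0.1% DMSO), then 5 μM nigericin 1 hr. Viability by 100 μM resazurin fluorescence after 1-2 hrs; IC50 by 4-parameter fit.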
Background: The colour change of resazurin is a common sign of viable cells or microbes.

23 molecules from US20200361895A1, “NOVEL SULFONAMIDE CARBOXAMIDE COMPOUNDS” (Inflazome Limited, priority 2017, published 2020) can be followed below.

Usually IC50 stands for the concentration that gives 50% inhibition.

Each structure is given as a SMILES string. Counter-ions that a name gives are not always drawn.

T1 sequence (Q96P20 whole entry): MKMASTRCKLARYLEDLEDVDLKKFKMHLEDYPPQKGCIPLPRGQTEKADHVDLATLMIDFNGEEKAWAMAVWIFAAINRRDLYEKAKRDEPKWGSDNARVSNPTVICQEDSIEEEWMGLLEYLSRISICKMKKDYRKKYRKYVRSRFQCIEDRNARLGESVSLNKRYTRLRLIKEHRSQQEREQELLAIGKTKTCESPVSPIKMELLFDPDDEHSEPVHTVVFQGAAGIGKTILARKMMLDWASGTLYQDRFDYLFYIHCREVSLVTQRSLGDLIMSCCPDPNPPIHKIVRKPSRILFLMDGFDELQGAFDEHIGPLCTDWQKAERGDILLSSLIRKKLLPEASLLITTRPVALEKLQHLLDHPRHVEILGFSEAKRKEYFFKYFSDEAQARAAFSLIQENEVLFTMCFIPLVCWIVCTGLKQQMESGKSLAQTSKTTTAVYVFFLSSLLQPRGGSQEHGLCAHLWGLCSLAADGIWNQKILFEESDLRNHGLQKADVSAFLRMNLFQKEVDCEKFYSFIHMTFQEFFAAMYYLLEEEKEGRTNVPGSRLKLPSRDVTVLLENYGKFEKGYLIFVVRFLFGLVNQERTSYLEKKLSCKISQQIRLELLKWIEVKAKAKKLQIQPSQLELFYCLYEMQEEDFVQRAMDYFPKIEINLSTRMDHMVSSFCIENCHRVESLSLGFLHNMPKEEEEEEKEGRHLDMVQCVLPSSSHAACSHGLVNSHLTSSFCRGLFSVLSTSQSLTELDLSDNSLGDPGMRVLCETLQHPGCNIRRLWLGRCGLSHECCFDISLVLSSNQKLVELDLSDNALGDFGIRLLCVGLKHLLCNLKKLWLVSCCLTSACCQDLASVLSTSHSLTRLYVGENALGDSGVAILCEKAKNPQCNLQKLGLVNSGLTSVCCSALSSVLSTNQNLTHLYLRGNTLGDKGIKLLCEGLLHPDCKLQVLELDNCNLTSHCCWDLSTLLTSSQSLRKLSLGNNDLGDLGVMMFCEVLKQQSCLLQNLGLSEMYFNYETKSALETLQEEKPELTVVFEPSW

Turning to `COc1cc(-c2ccc3c(c2NC(=O)NS(=O)(=O)C2CN(C(C)C)C2)CCC3)ccn1` [Example 76, 1-Isopropyl-N-((5-(2-methoxypyridin-4-yl)-2,3-dihydro-1H-inden-4-yl)carbamoyl)azetidine-3-sulfonamide], the half-inhibitory concentration (IC50) on NLRP3 [1] and on NLRP3 [2] was not above 500 nM throughout.
Take `COc1cc(-c2ccc3c(c2NC(=O)NS(=O)(=O)c2cnn(C4CC4)c2)CCC3)ccn1` [Example 145, 1-Cyclopropyl-N-((5-(2-methoxypyridin-4-yl)-2,3-dihydro-1H-inden-4-yl)carbamoyl)-1H-pyrazole-4-sulfonamide]: the 50% inhibitory concentration (IC50) was not above 1000 nM on NLRP3 [1] and not above 500 nM on NLRP3 [2].
The corresponding values for `COCC(C)Oc1cc(-c2ccc3c(c2NC(=O)NS(=O)(=O)c2ccn(C(C)C)n2)CCC3)ccn1` (stereo not shown) [Example 289, 1-Isopropyl-N-((5-(2-((1-methoxypropan-2-yl)oxy)pyridin-4-yl)-2,3-dihydro-1H-inden-4-yl)carbamoyl)-1H-pyrazole-3-sulfonamide, sodium salt] are not above 5000 nM and not above 500 nM.
The corresponding values for `[2H]C([2H])([2H])Oc1cc(-c2ccc3c(c2NC(=O)NS(=O)(=O)c2ccc(CN(C)C)cc2)CCC3)ccn1` [Example 310, 4-((Dimethylamino)methyl)-N-((5-(2-(methoxy-d3)pyridin-4-yl)-2,3-dihydro-1H-inden-4-yl)carbamoyl)benzenesulfonamide] are not above 500 nM and not above 500 nM.
The corresponding values for `CC(C)(O)c1coc(S(=O)(=O)NC(=O)Nc2c3c(nn2-c2ccncc2)CCC3)c1` [Example 323, 4-(2-Hydroxypropan-2-yl)-N-((2-(pyridin-4-yl)-2,4,5,6-tetrahydrocyclopenta[c]pyrazol-3-yl)carbamoyl)furan-2-sulfonamide] are not above 500 nM and not above 5000 nM.
`COc1cc(-c2ccc3c(c2NC(=O)NS(=O)(=O)c2nn(C4CC4)cc2F)CCC3)ccn1` [Example 305, 1-Cyclopropyl-4-fluoro-N-((5-(2-methoxypyridin-4-yl)-2,3-dihydro-1H-inden-4-yl)carbamoyl)-1H-pyrazole-3-sulfonamide]: the IC50 at NLRP3 [1] and at NLRP3 [2] was not above 500 nM throughout.
Regarding `CN(C)c1cnnc(S(=O)(=O)NC(=O)Nc2c(-c3ccncc3)cc(F)c3c2CCC3)c1` [Example 121, 5-(Dimethylamino)-N-((7-fluoro-5-(pyridin-4-yl)-2,3-dihydro-1H-inden-4-yl)carbamoyl) pyridazine-3-sulfonamide], the IC50 on NLRP3 [1] was not above 1000 nM; on NLRP3 [2] it was not above 500 nM.
With `COc1cc(-c2ccc3c(c2NC(=O)NS(=O)(=O)c2ccn(C(C)(C)C)n2)CCO3)ccn1` [Example 259, 1-(tert-Butyl)-N-((5-(2-methoxypyridin-4-yl)-2,3-dihydrobenzofuran-4-yl)carbamoyl)-1H-pyrazole-3-sulfonamide, sodium salt], the 50% inhibitory concentration (IC50) on NLRP3 [1] and on NLRP3 [2] was not above 500 nM each time.
Regarding `N#Cc1cc(-c2ccc3c(c2NC(=O)NS(=O)(=O)c2cnn(CC(F)F)c2)CCC3)ccn1` [Example 231, N-((5-(2-Cyanopyridin-4-yl)-2,3-dihydro-1H-inden-4-yl)carbamoyl)-1-(2,2-difluoroethyl)-1H-pyrazole-4-sulfonamide, sodium salt], the IC50 at NLRP3 [1] and on NLRP3 [2] was not above 500 nM in each case.
`O=C(Nc1c(-c2ccnc(OC3CC3)c2)ccc2c1CCO2)NS(=O)(=O)c1ccn(C2CC2)n1` [Example 276, N-((5-(2-Cyclopropoxypyridin-4-yl)-2,3-dihydrobenzofuran-4-yl)carbamoyl)-1-cyclopropyl-1H-pyrazole-3-sulfonamide, sodium salt]: the 50% inhibitory concentration (IC50) on NLRP3 [1] was not above 1000 nM; at NLRP3 [2] it was not above 500 nM.
The corresponding values for `COc1cc(-c2ccc3c(c2NC(=O)NS(=O)(=O)c2ccn(C4CC4)n2)CCO3)c(F)cn1` [Example 265, 1-Cyclopropyl-N-((5-(5-fluoro-2-methoxypyridin-4-yl)-2,3-dihydrobenzofuran-4-yl)carbamoyl)-1H-pyrazole-3-sulfonamide, sodium salt] are not above 500 nM and not above 500 nM.
On the same counts, the results for `COc1cc(-c2ccc3c(c2NC(=O)NS(=O)(=O)OC2CCN(C)C2)CCC3)ccn1` (stereo not shown) [Example 284, 1-Methylpyrrolidin-3-yl (5-(2-methoxypyridin-4-yl)-2,3-dihydro-1H-inden-4-yl)carbamoylsulfamate] are not above 1000 nM and not above 500 nM.
On the same counts, the results for `COc1cc(-c2ccc3c(c2NC(=O)NS(=O)(=O)c2cn(C(C)C)c(=O)cn2)CCC3)ccn1` [Example 73, 4-Isopropyl-N-((5-(2-methoxypyridin-4-yl)-2,3-dihydro-1H-inden-4-yl)carbamoyl)-5-oxo-4,5-dihydropyrazine-2-sulfonamide, partial ammonium salt] are not above 500 nM and not above 500 nM.
On to `CC(C)n1cc(S(=O)(=O)NC(=O)Nc2c(-c3ccncc3)cc(F)c3c2CCC3)ccc1=O` [Example 91, N-((7-Fluoro-5-(pyridin-4-yl)-2,3-dihydro-1H-inden-4-yl)carbamoyl)-1-isopropyl-6-oxo-1,6-dihydropyridine-3-sulfonamide], for which the IC50 is not above 1000 nM at NLRP3 [1] and not above 500 nM on NLRP3 [2].
The corresponding values for `C[C@@H](O)Cn1ccc(S(=O)(=O)NC(=O)Nc2c(-c3ccnc(C#N)c3)ccc3c2CCC3)n1` [Example 182, (R)-N-((5-(2-Cyanopyridin-4-yl)-2,3-dihydro-1H-inden-4-yl)carbamoyl)-1-(2-hydroxypropyl)-1H-pyrazole-3-sulfonamide, sodium salt] are not above 500 nM and not above 500 nM.
The corresponding values for `COc1cc(-c2ccc3c(c2NC(=O)NS(=O)(=O)c2ccn(C(C)C)n2)CCCC3)ccn1` [Example 213, 1-Isopropyl-N-((2-(2-methoxypyridin-4-yl)-5,6,7,8-tetrahydronaphthalen-1-yl)carbamoyl)-1H-pyrazole-3-sulfonamide] are not above 5000 nM and not above 500 nM.
The corresponding values for `COc1cc(-c2ccc3c(c2NC(=O)NS(=O)(=O)c2ccn(C(C)(C)CN4CCC4)n2)CCC3)ccn1` [Example 219, 1-(1-(Azetidin-1-yl)-2-methylpropan-2-yl)-N-((5-(2-methoxypyridin-4-yl)-2,3-dihydro-1H-inden-4-yl)carbamoyl)-1H-pyrazole-3-sulfonamide] are not above 500 nM and not above 500 nM.
On to `COc1cc(-c2cc(F)cc(C(C)C)c2NC(=O)NS(=O)(=O)c2cc(C3(OC)COC3)n(C)n2)ccn1` [Example 52, N-((4-Fluoro-2-isopropyl-6-(2-methoxypyridin-4-yl)phenyl)carbamoyl)-5-(3-methoxyoxetan-3-yl)-1-methyl-1H-pyrazole-3-sulfonamide], for which the half-inhibitory concentration (IC50) at NLRP3 [1] and on NLRP3 [2] was not above 500 nM in each case.
Turning to `CN(C)CC(C)(C)n1ccc(S(=O)(=O)NC(=O)Nc2c(-c3ccnc(OC4CC4)c3)ccc3c2CCC3)n1` [Example 200, N-((5-(2-Cyclopropoxypyridin-4-yl)-2,3-dihydro-1H-inden-4-yl)carbamoyl)-1-(1-(dimethylamino)-2-methylpropan-2-yl)-1H-pyrazole-3-sulfonamide, sodium salt], the IC50 on NLRP3 [1] and on NLRP3 [2] was not above 500 nM throughout.
In the case of `CCn1nc(S(=O)(=O)NC(=O)Nc2c(-c3cccc(C#N)c3)ccc3c2CCC3)cc1CN(C)C` [Example 68, N-((5-(3-Cyanophenyl)-2,3-dihydro-1H-inden-4-yl)carbamoyl)-5-((dimethylamino)methyl)-1-ethyl-1H-pyrazole-3-sulfonamide], the IC50 on NLRP3 [1] is not above 1000 nM; on NLRP3 [2], not above 500 nM.
On the same counts, the results for `CC(C)n1ccc(S(=O)(=O)NC(=O)Nc2c(-c3ccnc(C#N)c3)ccc3c2CCC3)n1` [Example 215, N-((5-(2-Cyanopyridin-4-yl)-2,3-dihydro-1H-inden-4-yl)carbamoyl)-1-isopropyl-1H-pyrazole-3-sulfonamide] are not above 500 nM and not above 500 nM.
`CCn1nc(S(=O)(=O)NC(=O)Nc2c(-c3cccnc3)cc(F)c3c2CCC3)cc1CN(C)C` [Example 65, 5-((Dimethylamino)methyl)-1-ethyl-N-((7-fluoro-5-(pyridin-3-yl)-2,3-dihydro-1H-inden-4-yl)carbamoyl)-1H-pyrazole-3-sulfonamide]: the IC50 on NLRP3 [1] and on NLRP3 [2] was not above 500 nM each time.
Turning to `COc1cc(-c2ccc3c(c2NC(=O)NS(=O)(=O)c2ncn(C(C)C)n2)CCC3)ccn1` [Example 232, 1-Isopropyl-N-((5-(2-methoxypyridin-4-yl)-2,3-dihydro-1H-inden-4-yl)carbamoyl)-1H-1,2,4-triazole-3-sulfonamide, sodium salt], the 50% inhibitory concentration (IC50) is not above 1000 nM on NLRP3 [1] and not above 500 nM at NLRP3 [2].
